Measurements taken from patent US20210179591A1, “NEW COMPOUNDS FOR USE AS A THERAPEUTICALLY ACTIVE SUBSTANCE AND IN PARTICULAR FOR USE IN THE TREATMENT OF TUMORS” (ETH ZURICH, priority 2017, published 2021).
Read-outs that look alike come from different tables or passages of the source.

Legend:
GST-DYRK1B = molecular target: T1, GST-DYRK1B (Homo sapiens, UniProt Q9Y463); assay: IC50 determination of DYRK1B inhibitors (ADP-Glo in vitro kinase assay with DYRKtide); format: biochemical; conditions: ATP 100 μM
T1 construct: purchased ThermoFisher
T1 sequence (Q9Y463 whole entry): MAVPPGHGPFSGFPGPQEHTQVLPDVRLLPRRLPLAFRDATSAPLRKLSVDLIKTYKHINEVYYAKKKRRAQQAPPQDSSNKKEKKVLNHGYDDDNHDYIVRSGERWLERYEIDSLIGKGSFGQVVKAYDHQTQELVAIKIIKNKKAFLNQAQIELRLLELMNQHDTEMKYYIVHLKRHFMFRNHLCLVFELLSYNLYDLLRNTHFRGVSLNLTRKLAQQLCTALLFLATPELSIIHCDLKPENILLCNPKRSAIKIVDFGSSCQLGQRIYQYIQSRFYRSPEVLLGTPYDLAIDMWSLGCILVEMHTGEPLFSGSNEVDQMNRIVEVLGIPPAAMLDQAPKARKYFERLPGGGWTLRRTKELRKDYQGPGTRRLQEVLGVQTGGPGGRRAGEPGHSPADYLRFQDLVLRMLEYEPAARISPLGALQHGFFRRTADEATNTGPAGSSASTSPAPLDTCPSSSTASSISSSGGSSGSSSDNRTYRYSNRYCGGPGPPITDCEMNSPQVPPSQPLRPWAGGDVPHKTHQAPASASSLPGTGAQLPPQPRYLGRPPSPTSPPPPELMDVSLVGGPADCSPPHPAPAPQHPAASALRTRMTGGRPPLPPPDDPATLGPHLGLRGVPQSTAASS
Method: In a preferred embodiment, the compounds of the present invention show inhibition of DYRK1B and/or DYRK1A to a higher extent than expected by the skilled person. The inhibition may be expressed as IC50, i.e. the concentration necessary to inhibit activity to 50%. […] The IC50 value may be determined using methods such as those described in the examples. As such, a suitable method comprises the steps of incubating GST-DYRK1B (e.g. at 5 nM) and DYRKtide (e.g. at 50 μM) in kinase buffer, following compound dispensing (e.g. 1 μl), e.g. 2 μl of ATP (final concentration e.g. 100 μM) and incubating, preferably at room temperature. After that, a detectable compound such as ADP-Glo™ reagent can be dispensed and incubated, preferably at room temperature. Finally, Kinase Detection Reagent can be dispensed and the solution be incubated before measuring.
Compounds of formula 16, 12, 14, 10 and 19 inhibited DYRK1B (SEQ. ID. NO. 1) kinase activity with an IC50 of 2 μM, 2 μM, 3 μM, 4 μM and 3 μM respectively. Titration curves show average of n=3 independent experiments, average±SD.
GST-DYRK1B (5 nM) and DYRKtide (50 μM) (Lucerna-Chem AG, D96-58) diluted in kinase buffer were dispensed in white 384 well plate (3572, Corning, N.Y., USA) (2 μl/well). Following compound dispensing (1 μl), 2 μl of ATP (final concentration 100 μM) was added and incubated for 30 min at room temperature. After that, 5 μl of ADP-Glo™ reagent was dispensed and incubated for 40 min at room temperature. Finally, 10 ul of Kinase Detection Reagent was dispensed and incubated for 30 min before measuring the plate on a Tecan infinite M1000pro plate reader (Luminescence mode).

DYRK1B = molecular target: T2, DYRK1B (Homo sapiens, UniProt Q9Y463); assay: In vitro kinase assay, immunoblot of p27 Ser10 phosphorylation by recombinant DYRK1B; format: biochemical; conditions: recombinant DYRK1B and p27, 100 μM ATP, FIG. 5a
T2 construct: purchased ThermoFisher
T2 sequence (Q9Y463 whole entry): as above
Method: (§1) Cells were lysed in lysis buffer (50 mM Tris-HCl pH 7.5, 250 mM NaCl, 0.5% NP-40, 5 mM NaCl, 5 mM NaF, 5 mM EDTA, 0.5 mM EGTA). Protein were separated in 10% SDS/PAGE gels, as previously described. Ser^10-p27 (sc-12939-R) (1:500) and DYRK1B (sc-390417) (1:200) antibodies were purchased from Santa-Cruz, γ-TUBULIN (ab11316) (1:5000) from Abcam, p27 (610242) (1:500) from BD Biosciences and V5 (R960-25) from Life Technology.
28 ng of GST-DYRK1B (ThermoFisher, NP_004705) and 100 ng of GST-p27 were mixed in 45 μl of kinase buffer (50 mM HEPES (pH 7.5), 1 mM DTT, MgCl2, 0.004% Triton X-100). Serial dilution of AZ191, compound of formula 10 or DMSO were added to the mix and incubated for 5 min at room temperature. 100 μM of ATP was added to start the kinase reaction which was carried out with constant shaking at 30° C. for 30 min. The reaction was terminated by addition of Laemmli buffer and boiled 5 min at 95° C. Finally, the proteins were separated by SDS page and detected by immunoblotting.

HT29 cells = assay: Immunoblot of p27 Ser10 phosphorylation in HT29 cells cultured in hypoxia; format: cell-based; conditions: FIG. 5b
Method: as §1

[1] = tested on: HT29-HRE MTS (hypoxic cancer cells); assay: Compound treatment of multicellular tumor spheroids (MTS), SYTOX cell death in the hypoxic core; format: cell-based; conditions: FIGS. 4a to 4e
Method: DMSO was used as negative control, AZ191 as positive control and staurosporine (STS) as a general cytotoxic control. Whole MTS was visualized by Hoechst staining and cell death by SYTOX staining. Scale bar 200 μm. […] Average±SD of n>10 MTS from 3 biological replicates are shown. […] After 72h hours in culture, 10 μl of a mix of SYTOX Orange (S11368) (1:1000) and Hoechst 33258 (1 μM) diluted in DMEM was added to each well of the ULA plate and incubated overnight before image acquisition. MTS were imaged with a 5× objective on Zeiss observer Z.1 microscope equipped with an automated stage, with Hoechst channel used for autofocusing. For each well, images of Hoechst, YFP and SYTOX channels were acquired in the middle of the MTS. Images were analyzed with a custom ImageJ script. Briefly, Hoechst channel images were used to generate a mask of the MTS, which was then scaled to 1:3 and transferred to the SYTOX channel to measure the pixel intensity in the core area of the MTS. HT29-HRE solution (20,000 cells/ml) was dispensed in ULA plates (250 μl/well) and spun at 700 g for 5 min. After 48 h, MTS were treated with 10 μl of serial dilutions of AZ191, compound of formula 10 DMSO or STS. The next day a mix of Hoechst and SYTOX was added to the wells. MTS were then processed as described above.

[2] = IC50 values for selected examples, GST-DYRK1B 5 nM, DYRKtide 50 μM, read-out: IC50
[3] = average of n=3 independent experiments, read-out: IC50 of DYRK1B kinase activity inhibition (ADP-Glo titration curve)

SMILES | IC50 (GST-DYRK1B; [2]) | IC50 (GST-DYRK1B; [3]) | further results
NCCCCCNc1nccc(-c2cnn(-c3ccc(F)cc3)c2)n1 [N-{4-[1-(4-fluorophenyl)-1H-pyrazol-4-yl]pyrimidin-2-yl}pentane-1,5-diamine, reference compound] | 15.6 µM |  | 
COc1ccccc1-n1cc(-c2ccnc(NCc3cnc(C)cn3)n2)cn1 [4-[1-(2-methoxyphenyl)-1H-pyrazol-4-yl]-N-[(5-methyl-2-pyrazinyl)methyl]-2-pyrimidinamine] | 10.3 µM |  | 
Cc1cccnc1CNc1nccc(-c2cnn(-c3ccccc3F)c2)n1 [4-[1-(2-fluorophenyl)-1H-pyrazol-4-yl]-N-[(3-methyl-2-pyridinyl)methyl]-2-pyrimidinamine] | 3.52 µM |  | 
Fc1ccccc1-n1cc(-c2ccnc(NC3CCOCC3)n2)cn1 [compound of formula 12] |  | 2 µM | 
Fc1ccccc1-n1cc(-c2ccnc(NCc3ccncc3)n2)cn1 [compound of formula 10, 4-(1-(2-fluorophenyl)-1H-pyrazole-4-yl)-N-(pyridine-4-ylmethyl)pyrimidine-2-amine] |  | 4 µM | inhibition of phosphorylation of DYRK1B substrate p27 at serine 10 (DYRK1B): inhibited the phosphorylation of DYRK1B substrate p27 at serine 10; inhibition of phosphorylation of p27 at serine 10 in cells (HT29 cells): inhibited the phosphorylation of DYRK1B substrate p27 at serine 10; activity against hypoxic cancer cells [1]: high activity
CC(Cc1ccncc1)Nc1nccc(-c2cnn(-c3ccccc3F)c2)n1 (centres unmarked) [compound of formula 16] |  | 2 µM | 
COc1ccccc1-n1cc(-c2ccnc(NCc3c(C)n[nH]c3C)n2)cn1 [compound of formula 19] |  | 3 µM | 

Now from value to compound, other results behind:

IC50 (GST-DYRK1B; [2]) | IC50 (GST-DYRK1B; [3]) | SMILES | further results
2 µM |  | OCCCCCNc1nccc(-c2cnn(-c3ccccc3F)c2)n1 [5-({4-[1-(2-fluorophenyl)-1H-pyrazol-4-yl]pyrimidin-2-yl}amino)pentan-1-ol] | 
3.97 µM |  | NCCCCCNc1nccc(-c2cnn(-c3ccccc3F)c2)n1 [N-{4-[1-(2-fluorophenyl)-1H-pyrazol-4-yl]pyrimidin-2-yl}pentane-1,5-diamine] | 
6.98 µM |  | Fc1ccccc1-n1cc(-c2ccnc(NCC(F)F)n2)cn1 [N-(2,2-difluoroethyl)-4-[1-(2-fluorophenyl)-1H-pyrazol-4-yl]pyrimidin-2-amine] | 
 | 3 µM | CCNc1nccc(-c2cnn(-c3ccccc3F)c2)n1 [compound of formula 14] | 
